From patent publication US20170240522A1, “BENZOTHIOPHENE, BENZYLOXYBENZYLIDENE AND INDOLINE DERIVATIVES USEFUL FOR THE TREATMENT OF TUBERCULOSIS” (priority 2014, published 2017)

What was measured:
[1] = test system: Mtb-infected THP-1 macrophages; type: cell-based, human
[2] = test system: Mtb expressing GFP in infected fibroblasts; type: cell-based, Mycobacterium tuberculosis; conditions: compound concentration 5 μM (FIG. 2D)
EsxA = type: cell-based, Mycobacterium tuberculosis
Mtb transcriptome = test: RNA-seq and qRT-PCR of compound-treated Mtb; type: cell-based, Mycobacterium tuberculosis; conditions: RNA-seq, 5 μM
Description: For the transcriptomic studies, bacteria were grown under the same conditions as for protein secretion assays. Drug exposure time was 8 hours with 5 μM of compound for RNA-seq experiments and confirmatory qRT-PCR. RNA was extracted with Trizol (Invitrogen) and treated with DNase I (Roche) prior to library preparation or generation of the cDNA template. cDNA was synthesized using the RevertAid First Strand cDNA Synthesis Kit (Fermentas) using random hexamer primer. cDNA corresponding to 10 ng of input RNA was used in each RT-PCR reaction supplemented with specific primer pairs (200 nM each) listed in Table S4 and SYBR-Green master mix (Applied Biosystems). Quantitative RT-PCR reactions were performed with the 7900HT Fast Real-Time PCR System (Applied Biosystems) with the following parameters: 50° C. for 2 min, 95° C. for 10 min, followed by 40 cycles of 95° C. for 15 s and 60° C. for 60 s. Melt curve analysis was used to confirm specific amplification for each primer pair. Unpaired Student's T-tests were used for statistical analyses.
For the RNA-seq library preparation 100 ng of total RNA were used in the TruSeq Stranded mRNA LT kit, according to the instructions provided by the manufacturer (Illumina). A small aliquot was analyzed on Qubit and Fragment Analyzer prior to sequencing on Illumina HiSeq using the TruSeq SR Cluster Generation Kit v3 and TruSeq SBS Kit v3. Data were processed with the Illumina Pipeline Software v1.82. RNA-seq data were deposited in the Gene Expression Omnibus (GEO) server at the National Center for Biotechnology Information (NCBI).
• All analyses in this study were carried out using the M. tuberculosis H37Rv annotation from the TubercuList database (http://tuberculist.epfl.ch/) (Lew et al., 2011). There are 4019 protein coding sequences (CDS) currently annotated in the genome, 73 genes encoding for stable RNAs, small RNAs and tRNAs. In order to quantify protein occupancy and transcription across the entire genome, 3080 intergenic regions (regions flanked by two non-overlapping CDS) were included, resulting in a total of 7172 features. • The single-ended sequence reads generated from RNA-seq experiments were aligned to the M. tuberculosis H37Rv genome (NCBI accession NC_000962.2) using Bowtie2 with default parameters (Langmead and Salzberg, 2012). Read counts for all annotated features were obtained with the htseq-count program (http://www.huber.embl.de/users/anders/HTSeq/doc/count.html). Regions where genes overlapped were excluded from counting. Reads spanning more than one feature were counted for each feature. Since the RNA library was strand-specific, the orientation of sequence reads had to correspond to the orientation of annotated features to be counted. Analysis of differential gene expression was carried out using the DESeq package (Anders and Huber, 2010).

Structure (SMILES): CSC(=S)N/N=C(\C)c1ccc(OCc2ccc(F)cc2F)cc1 [BBH7, N′-{1-[4-(2,4-Difluoro-benzyloxy)-phenyl]ethylidene}-hydrazinecarbodithioic acid methyl ester]
- rate of bacteria in acidic compartments (Lysotracker Red co-localization) [1]: significantly higher rate
- GFP fluorescence of Mtb in infected fibroblasts [2]: no fluorescence was detected
- EsxA secretion (EsxA): dose-dependent secretion inhibition
- upregulated genes (number) (Mtb transcriptome): 121 genes
- upregulation of the metallothionein mymT (Mtb transcriptome): 20 fold
- differentially regulated genes (number) (Mtb transcriptome; 8 hours): 144 genes
